“Also recorded” adds a separate entry of the source.

The results in this text go back to patent US7781565B2 (priority 2006, dated 2010).

The experiment concerns NCI-60 cell lines. The format is cell-based, human.

RASIGIE: the “Cell Line (NCI-60 cell line the peptide and its motif are associated with)” value is “UACC 257 Melanoma”.
As to DNDGARG, the “Cell Line (NCI-60 cell line the peptide is associated with)” value was “COLO-205-Colon”.
SDVSGSS: the “Cell Line with which the peptide (and its tripeptide motif) is associated” value (shortened to “Cell Line with which the peptide”) is “H322-Lung”.
With PRLSWVL, the “Cell Line (NCI-60 cell line the peptide is associated with)” value is “HT-29 Colon”.
Still for that read-out and setting: the result for YGQYGGL reads “HCT-15 Colon”.
For WSATGVS, the “Cell Line the peptide is associated with (peptide recovered from phage library selection on this NCI-60 cell line)” value was “HS 578 T Breast”.
On to QVLLRSF, for which the “Cell Line with which the peptide” value is on record as “Hop-62-Lung”.
Turning to GVRGGGD, the “Cell Line the peptide is associated with (peptide recovered from phage library selection on this NCI-60 cell line)” value is given as “CAIK-1 Renal”.
Turning to GGSGIGS, the “Cell Line with which the peptide” value is reported as “Hop-92-Lung”.
Turning to EFTRRAS, the “Cell Line with which the peptide” value was “A549-Lung”.
Still for that read-out and setting: the result for SEDEGAG reads “H322-Lung”.
On the same count and under the same terms, the result for LLRRAVF reads “Hop-62-Lung”.
Regarding YGLRSLV, the “Cell Line the peptide is associated with (peptide recovered from phage library selection on this NCI-60 cell line)” value was “BT-549 Breast”.
In the case of HAPGLRV, the “Cell Line (NCI-60 cell line the peptide is associated with)” value is given as “MALME-3M Melanoma”.
The same measure, in the same setting: the entry for LKLLSVP is “HT-29 Colon”.
For LACRGPS, the “Cell Line (NCI-60 cell line the peptide and its motif are associated with)” value is listed as “PC3 Prostate”.
As to WRLGAVG, the “Cell Line (NCI-60 cell line the peptide is associated with)” value is “SW620-Colon”.
SKAVLRS: the “Cell Line (NCI-60 cell line the peptide and its motif are associated with)” value is on record as “SK-MEL-2 Melanoma”.
PRYGVRA: the “Cell Line with which the peptide” value is “RPMI-8226-Leukemia”.
Still for that read-out and setting: the entry for AGLSGGT is “EKVX-Lung”.
On the same count and under the same terms, the result for GSSLHLL reads “RPMI-8226-Leukemia”.
As for TRGSGAG, the “Cell Line the peptide is associated with (peptide recovered from phage library selection on this NCI-60 cell line)” value is on record as “HS 578 T Breast”.
Regarding WRARASP, the “Cell Line (NCI-60 cell line the peptide and its motif are associated with)” value is “UACC62 Melanoma”.
For the substance TFAGLAQ, the “Cell Line the peptide is associated with (peptide recovered from phage library selection on this NCI-60 cell line)” value is given as “BT-549 Breast”.
Regarding ACTGVSR, the “Cell Line the peptide is associated with (peptide recovered from phage library selection on this NCI-60 cell line)” value is on record as “RXF393 Renal”.
Consider GGFTGGL, for which the “Cell Line (NCI-60 cell line the peptide is associated with)” value is recorded as “SF-295 CNS”.
Consider SRLSYRA, for which the “Cell Line (NCI-60 cell line the peptide and its motif are associated with)” value is recorded as 786-0 Renal.
On to GGRSKKV, for which the “Cell Line (NCI-60 cell line the peptide is associated with)” value was “SF-268 CNS”.
On the same count and under the same terms, the result for RGSVASA reads “HT-29 Colon”.
Turning to WAGLSRP, the “Cell Line the peptide is associated with (peptide recovered from phage library selection on this NCI-60 cell line)” value is “SN12C Renal”.
For the substance YVRIGRV, the “Cell Line (NCI-60 cell line the peptide is associated with)” value is “HCT-15 Colon”.
Still for that read-out and setting: the entry for FGSSNRS is “SF-268 CNS”; for QLVSGSL it is “HCT-116 Colon”.
AGLPHRF: the “Cell Line the peptide is associated with (peptide recovered from phage library selection on this NCI-60 cell line)” value was “UO31 Renal”.
Turning to AVYRAGR, the “Cell Line with which the peptide” value is recorded as “H522-Lung”.
For the substance GRLVWGL, the “Cell Line (NCI-60 cell line the peptide is associated with)” value was “HCT-116 Colon”.
For the substance GLVARVR, the “Cell Line (NCI-60 cell line the peptide and its motif are associated with)” value is reported as “SK-MEL-28 Melanoma”.
YTGSSPS: the “Cell Line (NCI-60 cell line the peptide and its motif are associated with)” value is “SK-OV-3-3 Ovarian”.
As for GLVSAFY, the “Cell Line with which the peptide” value is “Hop-62-Lung”.
For LLVSLSS, the “Cell Line the peptide is associated with (peptide recovered from phage library selection on this NCI-60 cell line)” value is reported as “RXF393 Renal”.
With DRGVPGL, the “Cell Line with which the peptide” value was “HL-60-Leukemia”.
Take WIWRAVS: the “Cell Line (NCI-60 cell line the peptide is associated with)” value is “SF-268 CNS”.
RGVNYRS: the “Cell Line the peptide is associated with (peptide recovered from phage library selection on this NCI-60 cell line)” value is recorded as “RXF393 Renal”.
Consider DGVSSDY, for which the “Cell Line (NCI-60 cell line the peptide is associated with)” value is “COLO-205-Colon”.
Regarding DSGLVGG, the “Cell Line (NCI-60 cell line the peptide is associated with)” value was “LOX-IMVI Melanoma”.
Take GVGGRQS: the “Cell Line the peptide is associated with (peptide recovered from phage library selection on this NCI-60 cell line)” value is “TK-10 Renal”.
With YAAGGST, the “Cell Line (NCI-60 cell line the peptide and its motif are associated with)” value was “A498 Renal”; the “Cell Line the peptide is associated with (peptide recovered from phage library selection on this NCI-60 cell line)” value is “A498 Renal”.
For SRLSYWQ, the “Cell Line (NCI-60 cell line the peptide is associated with)” value is given as “LOX-IMVI Melanoma”.
With GLGNRPT, the “Cell Line with which the peptide” value was “RPMI-8226-Leukemia”.
Take GWVAVSC: the “Cell Line (NCI-60 cell line the peptide is associated with)” value is “LOX-IMVI Melanoma”.
For the substance SRYSLRS, the “Cell Line with which the peptide” value was “A549-Lung”.
In the case of MGVLTAE, the “Cell Line (NCI-60 cell line the peptide is associated with)” value was “SNB-19 CNS; also recorded: SF-539 CNS”.
Consider SFAGRIL, for which the “Cell Line the peptide is associated with (peptide recovered from phage library selection on this NCI-60 cell line)” value is “T-47D Breast”.
On to GGGSWLI, for which the “Cell Line with which the peptide” value is recorded as “EKVX-Lung”.
Regarding LQGSGAY, the “Cell Line (NCI-60 cell line the peptide and its motif are associated with)” value is recorded as “OVCAR-8 Ovarian”.
With DWVGVLM, the “Cell Line (NCI-60 cell line the peptide and its motif are associated with)” value is given as “UACC62 Melanoma”.
Take RLRLSSW: the “Cell Line the peptide is associated with (peptide recovered from phage library selection on this NCI-60 cell line)” value is on record as “TK-10 Renal”.
On to HVSGGSG, for which the “Cell Line with which the peptide” value is “Hop-92-Lung”.
Same read-out and setting: the result for LLSTSIR reads “RPMI-8226-Leukemia”.
For LGLRGGA, the “Cell Line (NCI-60 cell line the peptide is associated with)” value is reported as “SF-268 CNS”.
On the same count and under the same terms, the entry for LAGLVSG is “HT-29 Colon”.
With WGRGSVA, the “Cell Line with which the peptide” value is on record as “Molt-4-Leukemia”.
With PRHRASQ, the “Cell Line (NCI-60 cell line the peptide and its motif are associated with)” value is “OVCAR-8 Ovarian”.
Take PGAVPGA: the “Cell Line (NCI-60 cell line the peptide is associated with)” value is recorded as “HT-29 Colon”.
For the substance MDGVSTE, the “Cell Line the peptide is associated with (peptide recovered from phage library selection on this NCI-60 cell line)” value was “A498 Renal”.
With RAGSRVQ, the “Cell Line (NCI-60 cell line the peptide is associated with)” value was “SF-295 CNS”.
Regarding HSGVSHG, the “Cell Line with which the peptide” value was “RPMI-8226-Leukemia”.
As to RVRAVLG, the “Cell Line (NCI-60 cell line the peptide and its motif are associated with)” value is on record as “SK-MEL-28 Melanoma”.
Consider LRYDLRS, for which the “Cell Line with which the peptide” value was “RPMI-8226-Leukemia”.
On the same count and under the same terms, the entry for RAMGGAG is “RPMI-8226-Leukemia”.
Consider MGPSARW, for which the “Cell Line the peptide is associated with (peptide recovered from phage library selection on this NCI-60 cell line)” value is “BT-549 Breast”.
The same measure, in the same setting: the entry for SGRLWVG is “RXF393 Renal”.
For the substance AGGIWIR, the “Cell Line (NCI-60 cell line the peptide is associated with)” value is on record as “KM-12C Colon”.
As for LVRSSGL, the “Cell Line with which the peptide” value is recorded as “Hop-92-Lung”.
On to ASLRYYV, for which the “Cell Line with which the peptide” value is “SR Leukemia”.
With AGRHLDA, the “Cell Line the peptide is associated with (peptide recovered from phage library selection on this NCI-60 cell line)” value was “HS 578 T Breast”.
Regarding SWAGVRF, the “Cell Line (NCI-60 cell line the peptide and its motif are associated with)” value is reported as “OVCAR-5 Ovarian”.
For the substance RVSGSPV, the “Cell Line the peptide is associated with (peptide recovered from phage library selection on this NCI-60 cell line)” value was “NCI/ADR-RES Breast”.
In the case of GRPLGGR, the “Cell Line (NCI-60 cell line the peptide is associated with)” value is on record as “HCT-15 Colon”.
Consider GLGVSGV, for which the “Cell Line with which the peptide” value was “Hop-62-Lung”.
With SLVSPRT, the “Cell Line (NCI-60 cell line the peptide and its motif are associated with)” value is listed as “OVCAR-5 Ovarian”.
YAASLMG: the “Cell Line (NCI-60 cell line the peptide is associated with)” value is “SNB-75 CNS”.
On the same count and under the same terms, the result for RARTGGS reads “SNB-75 CNS”.
In the case of GLEGSGG, the “Cell Line with which the peptide” value is reported as “H23-Lung”.
As to ANGSSKK, the “Cell Line the peptide is associated with (peptide recovered from phage library selection on this NCI-60 cell line)” value is “MDA-MB-231 Breast”.
Regarding WFKGPSV, the “Cell Line (NCI-60 cell line the peptide is associated with)” value is “SF-268 CNS”.
Regarding WRGGLDR, the “Cell Line the peptide is associated with (peptide recovered from phage library selection on this NCI-60 cell line)” value is listed as “MCF-7 Breast”.
Turning to LEGVRLF, the “Cell Line with which the peptide” value is “Hop-62-Lung”.
In the case of YSGRLVM, the “Cell Line (NCI-60 cell line the peptide is associated with)” value is on record as “SNB-75 CNS”.
As to TTLLSRQ, the “Cell Line (NCI-60 cell line the peptide and its motif are associated with)” value is recorded as “OVCAR-5 Ovarian”.
The same measure, in the same setting: the entry for SVRVGSG is “SK-MEL-28 Melanoma”.
Regarding LELGRLL, the “Cell Line with which the peptide” value is on record as “HL-60-Leukemia”.
Same read-out and setting: the result for LRSRLGF reads “SR Leukemia”.
As for AGRPGGY, the “Cell Line (NCI-60 cell line the peptide and its motif are associated with)” value is reported as “PC3 Prostate”.
With AGLWPWN, the “Cell Line the peptide is associated with (peptide recovered from phage library selection on this NCI-60 cell line)” value is listed as “CAIK-1 Renal”.
For DENRAGL, the “Cell Line (NCI-60 cell line the peptide and its motif are associated with)” value is on record as “DU-145 Prostate”.
For VVMIAGS, the “Cell Line the peptide is associated with (peptide recovered from phage library selection on this NCI-60 cell line)” value is reported as “MDA-MB-231 Breast”.
DLLRYLA: the “Cell Line with which the peptide” value was “H322-Lung”.
Regarding YGVSRLL, the “Cell Line (NCI-60 cell line the peptide and its motif are associated with)” value is reported as “DU-145 Prostate”.
GVLTIGA: the “Cell Line the peptide is associated with (peptide recovered from phage library selection on this NCI-60 cell line)” value is reported as “BT-549 Breast”.
Regarding SGVRPVI, the “Cell Line (NCI-60 cell line the peptide and its motif are associated with)” value was “SK-MEL-2 Melanoma”.
As for RHFGLRE, the “Cell Line with which the peptide” value was “H522-Lung”.
On to SRGSYGS, for which the “Cell Line the peptide is associated with (peptide recovered from phage library selection on this NCI-60 cell line)” value is “MDA-MB-435-Breast”.
In the case of DLRLSFP, the “Cell Line (NCI-60 cell line the peptide and its motif are associated with)” value is “UACC 257 Melanoma”.
On to FHIWGGR, for which the “Cell Line the peptide is associated with (peptide recovered from phage library selection on this NCI-60 cell line)” value is “MDA-MB-231 Breast”.
Regarding CGARGAA, the “Cell Line with which the peptide” value is “H322-Lung”.
GLRDGVE: the “Cell Line the peptide is associated with (peptide recovered from phage library selection on this NCI-60 cell line)” value is “A498 Renal”.
The same measure, in the same setting: the entry for PRASDIL is “BT-549 Breast”.
Turning to WWGLGWL, the “Cell Line (NCI-60 cell line the peptide is associated with)” value is reported as “HCC-2998-Colon”.
On to SRVSNPS, for which the “Cell Line (NCI-60 cell line the peptide and its motif are associated with)” value is listed as “SK-MEL-2 Melanoma”.
For the substance RLSGAGD, the “Cell Line (NCI-60 cell line the peptide and its motif are associated with)” value was “OVCAR-5 Ovarian”.
In the case of DLVGRVR, the “Cell Line the peptide is associated with (peptide recovered from phage library selection on this NCI-60 cell line)” value was “BT-549 Breast”.
